The text below walks through data of publication PMC4532598 (European journal of pharmacology, 2015).

For orientation: EC50 means the midpoint of the concentration-response curve. As usually defined, the Emax is the greatest response seen or fitted, relative to the assay's reference.

One data set concerns mice. The conditions noted are these: mouse, in vivo; cited from earlier work.
Data set [1] has as its target T1, hKOP receptor (Homo sapiens, UniProt P41145). As to the kind of experiment: biochemical. It is filed as biochemical. The conditions noted are these: for Emax: read-out: [35S]GTPγS binding Emax. For orientation: GTPγS resists hydrolysis and so accumulates on activated G proteins.
Data set [2] has as its target T1, hKOP receptor. As to the kind of experiment: cell-based. It is filed as cell-based. The conditions noted are these: for Emax: read-out: Internalization Emax (% receptor internalized).
Data set [3] has as its target T1, hKOP receptor.
Data set [4] has as its target T2, mKOP receptor (Mus musculus, UniProt P33534). In words: biochemical. It is filed as biochemical. The conditions noted are these: for Emax: read-out: [35S]GTPγS binding Emax.
The target in data set [5] is T2, mKOP receptor. As to the kind of experiment: cell-based. It is filed as cell-based.
In data set [6] the target is T2, mKOP receptor.

Entries after “also recorded” stand apart in the source; their conditions may differ.

T2 sequence (P33534 whole entry): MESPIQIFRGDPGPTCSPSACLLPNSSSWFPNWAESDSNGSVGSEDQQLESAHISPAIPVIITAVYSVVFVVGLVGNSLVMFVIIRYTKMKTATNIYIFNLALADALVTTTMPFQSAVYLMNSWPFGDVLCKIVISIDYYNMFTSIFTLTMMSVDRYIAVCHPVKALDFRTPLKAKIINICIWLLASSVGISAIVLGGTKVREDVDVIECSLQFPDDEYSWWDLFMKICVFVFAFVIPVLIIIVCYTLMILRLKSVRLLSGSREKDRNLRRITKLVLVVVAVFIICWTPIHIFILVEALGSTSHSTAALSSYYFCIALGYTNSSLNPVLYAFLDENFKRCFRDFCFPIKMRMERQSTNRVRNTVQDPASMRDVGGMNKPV
T1 sequence (P41145 whole entry): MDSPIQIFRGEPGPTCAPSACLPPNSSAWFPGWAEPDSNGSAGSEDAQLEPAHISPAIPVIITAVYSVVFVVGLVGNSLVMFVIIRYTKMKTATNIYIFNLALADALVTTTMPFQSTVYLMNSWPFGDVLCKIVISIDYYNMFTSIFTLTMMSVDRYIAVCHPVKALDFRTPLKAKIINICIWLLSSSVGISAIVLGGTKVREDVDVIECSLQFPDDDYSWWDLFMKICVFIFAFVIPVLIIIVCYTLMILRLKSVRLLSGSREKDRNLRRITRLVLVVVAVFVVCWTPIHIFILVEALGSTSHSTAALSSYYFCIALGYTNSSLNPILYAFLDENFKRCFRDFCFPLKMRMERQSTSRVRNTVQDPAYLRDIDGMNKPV

Turning to `COC(=O)[C@@H]1C[C@H](OC(C)=O)C(=O)[C@H]2[C@@]1(C)CC[C@H]1C(=O)O[C@H](c3ccoc3)C[C@]21C` [Salvinorin A, salvinorin A], in the data set with mice, the “Sedation and anhedonia-like actions” value was “produced sedation and anhedonia-like actions”.
For `CCC12CCN(CC3(O)CC3)C(Cc3ccc(O)cc31)C2(C)C` (centres unmarked) [Bremazocine, bremazocine], on hKOP receptor [1], the “log RAi−G” value turned out to be 0.50 ± 0.11 and the Emax was 68.2 ± 2%. Besides, the response at hKOP receptor [1] ([35S]GTPγS binding EC50, mean) was half-maximal at 0.95 nM (EC50). At hKOP receptor [2], the “log RAi−I” value came to 0.58 ± 0.16 and the Emax turned out to be 39.2 ± 1.8%. In addition, the midpoint of the response on hKOP receptor [2] (Internalization EC50, mean), the EC50, lay at 1.4 nM. In addition, a half-maximal effect at hKOP receptor [2] (Internalization pEC50) (EC50) was put at 1.35 nM. On hKOP receptor [3], the “Bias factor (larger RAi divided by smaller)” value is listed as “I ^c, 1.2”; the “Bias factor, direction of bias” value is given as “I ^c, 1.2”; the “Functional selectivity (bias) in words” value is given as “did not reach statistical significance”.
In the case of `CC(C)=CCN1CCC2(C)c3cc(O)ccc3CC1C2C` (centres unmarked) [Pentazocine, pentazocine], on hKOP receptor [1], the “Agonist efficacy in [35S]GTPγS binding, in words” value (shortened to “Agonist efficacy”) was “partial agonists” and the Emax stood at 20.5 ± 6.9%. For the same compound, the midpoint of the response on hKOP receptor [1] ([35S]GTPγS binding EC50, mean), the EC50, lay at 28 nM. The compound further had an EC50 at hKOP receptor [1] ([35S]GTPγS binding pEC50) of 28.2 nM. Also, at hKOP receptor [2], the “log RAi−I” value is given as −0.87 ± 0.22 and the Emax is 37 ± 13.3%. The same compound had an EC50 at hKOP receptor [2] (Internalization EC50, mean) of 92 nM. The EC50 on hKOP receptor [2] (Internalization pEC50) is 91.2 nM. In addition, on mKOP receptor [4], the “Agonist efficacy” value was “partial agonists” and the Emax was determined as 46.6 ± 2.7%. In addition, on mKOP receptor [5], the “Internalization Emax (% receptor internalized)” value is “did not cause significant internalization; also recorded: lacked significant effects on receptor internalization; also recorded: did not cause receptor internalization; also recorded: not mKOP receptor; also recorded: No internalization”. Besides, at hKOP receptor [3], the “Bias factor (larger RAi divided by smaller)” value is “I ^c, 5.8”; the “Bias factor, direction of bias” value is “I ^c, 5.8”; the “Bias factor, direction, hKOP receptor (Table 5)” value was “I ^c, 5.8”; the “Bias factor, hKOP receptor (Table 5)” value is given as “I ^c, 5.8”.
Consider `CN1CC[C@]23CCCC[C@H]2[C@H]1Cc1ccc(O)cc13` [Levorphanol, levorphanol], for which, at hKOP receptor [1], the “Agonist efficacy” value is listed as “weak partial agonist; also recorded: partial agonists” and the Emax came to 38.1 ± 4.8%. Moreover, the EC50 at hKOP receptor [1] ([35S]GTPγS binding EC50, mean) is 72 nM. In addition, on hKOP receptor [2], the “Internalization Emax (% receptor internalized)” value was “did not cause significant internalization; also recorded: lacked an effect on receptor internalization; also recorded: did not cause receptor internalization; also recorded: No internalization” and the “Internalization pEC50” value was “No internalization”. Also, on mKOP receptor [4], the “Agonist efficacy” value is “partial agonists” and the Emax was determined as 62.3 ± 2.9%. On mKOP receptor [4] ([35S]GTPγS binding pEC50), this compound gave an EC50 of 30.2 nM. Further, on mKOP receptor [5], the 50% effective concentration (EC50) is 0.83 nM and the “log RAi−I” value was found to be 0.29 ± 0.35. Moreover, the Emax at mKOP receptor [5] (read-out: Internalization Emax (% receptor internalized)) was 29.7 ± 1.7%. Moreover, at mKOP receptor [6], the “Bias factor, direction of bias” value is “I, 244”; the “Bias factor, direction, mKOP receptor (Table 5)” value is “I, 244”; the “Bias factor, mKOP receptor (Table 5)” value was “I, 244”; the “Functional selectivity (bias) in words” value was “internalization-biased”. Besides, the “log RAi−G/RAi−I (log bias)” value at mKOP receptor [6] is −2.39 ± 0.37.
With RB-64, the “Sedation and anhedonia-like actions” value in the data set with mice is on record as “did not induce sedation or anhedonia-like effects”.
Consider `C=CCN1CC[C@]23c4c5ccc(O)c4O[C@H]2[C@@H](O)C=C[C@H]3[C@H]1C5` [Nalorphine, nalorphine], for which the EC50 at hKOP receptor [1] ([35S]GTPγS binding pEC50) was 27.5 nM. For the same compound, the Emax on hKOP receptor [1] stood at 51.4 ± 2.3%. Also, on hKOP receptor [2], the “Internalization Emax (% receptor internalized)” value was found to be 23.7 ± 4.0% and the Emax turned out to be 23.9%. In addition, on hKOP receptor [2] (Internalization pEC50), the response was half-maximal at 12 nM (EC50). Also, at hKOP receptor [3], the “Bias factor (larger RAi divided by smaller)” value was “I ^c, 2.5”; the “Bias factor, direction of bias” value is reported as “I ^c, 2.5”; the “Functional selectivity (bias) in words” value is “did not reach statistical significance”.
Consider `CC[C@]12CCN(CC3CC3)[C@H](C(=O)c3ccc(O)cc31)[C@@H]2C` [EKC, ethylketocyclazocine], for which, on hKOP receptor [1], the “log RAi−G” value came out at 0.015 ± 0.11 and the Emax amounted to 80.6 ± 1.5%. For the same compound, the Emax on hKOP receptor [2] was 44.8 ± 2.2%. Also, the “Bias factor, direction of bias” value on hKOP receptor [3] was “I, 3.1”.
As to `COC(=O)/C=C/C(=O)N[C@@H]1CC[C@@]2(O)[C@H]3Cc4ccc(O)c5c4[C@@]2(CCN3CC2CC2)[C@H]1O5` [β-FNA, β-funaltrexamine], on hKOP receptor [1], the “[35S]GTPγS binding Emax” value is given as 63.7 ± 2.4% and the “[35S]GTPγS binding pEC50” value is listed as 8.08 ± 0.09 (8.4). Moreover, at hKOP receptor [1] (read-out: [35S]GTPγS binding EC50, mean), the EC50 is 8.4 nM. Moreover, on hKOP receptor [2], the “Internalization Emax (% receptor internalized)” value is 32.8 ± 5.7% and the “Internalization pEC50” value is 8.02 ± 0.47 (9.6). Also, the EC50 at hKOP receptor [2] (read-out: Internalization EC50, mean) is 9.6 nM. On hKOP receptor [3], the “Bias factor (larger RAi divided by smaller)” value is “I ^c, 1.2”; the “Bias factor, direction of bias” value is given as “I ^c, 1.2”; the “Functional selectivity (bias) in words” value is “did not reach statistical significance”.
Take `CN1c2ccccc2C(c2ccccc2F)=NCC1CNC(=O)c1ccsc1` (centres unmarked) [Tifluadom, tifluadom]: the EC50 is 333 nM at hKOP receptor [1] ([35S]GTPγS binding EC50, mean) and 11.2 nM on hKOP receptor [2] (Internalization pEC50). For the same compound, the Emax is 97.2 ± 11% on hKOP receptor [1] and 29.6 ± 2.1% at hKOP receptor [2]. At hKOP receptor [3], the “Bias factor, direction of bias” value is given as “I, 11.8”.
For the compound `Oc1ccc2c(c1)[C@@]13CCCC[C@@]1(O)[C@@H](C2)N(CC1CCC1)CC3` [Butorphanol, butorphanol], the EC50 was 2.4 nM on hKOP receptor [1] ([35S]GTPγS binding EC50, mean); 2.34 nM on hKOP receptor [1] ([35S]GTPγS binding pEC50); 3.31 nM on hKOP receptor [2] (Internalization pEC50). Besides, the Emax came to 25.6 ± 1.8% at hKOP receptor [1] and 33.4 ± 3.2% at hKOP receptor [2]. In addition, at hKOP receptor [2], the “log RAi−I” value turned out to be 0.088 ± 0.18. For the same compound, the “Bias factor, direction of bias” value on hKOP receptor [3] is given as “I ^c, 4.7”. Moreover, on hKOP receptor [3], the “Functional selectivity (bias) in words” value is recorded as “did not reach statistical significance”.
